Source: patent US6864219B2, “Substituted aryl ketones” (Bayer Aktiengesellschaft, priority 2000, dated 2005)
Like-named read-outs stand apart in the source and are kept apart here.

Test: log P determination by HPLC on reversed-phase column (C 18), EEC Directive 79/831 V.A8
Assay type: physicochemical
Details: for logP (Physical data, Table 1): labelled a): acidic range, 0.1% aqueous phosphoric acid/acetonitrile gradient, 43° C.
Experimental: The log P values given in Table 1 were determined in accordance with EEC Directive 79/831 V.A8 by HPLC (High Performance Liquid Chromatography) on a reversed-phase column (C 18). Temperature: 43° C.
(a) Mobile phases for the determination in the acidic range: 0.1% aqueous phosphoric acid, acetonitrile; linear gradient of 10% acetonitrile to 90% acetonitrile—the corresponding data in Table 1 are labelled ^a).
(b) Mobile phases for the determination in the neutral range: 0.01 molar aqueous phosphate buffer solution, acetonitrile, linear gradient from 10% acetonitrile to 90% acetonitrile—the corresponding data in Table 1 are labelled ^b).

[1] = reversed-phase HPLC column (C 18), mobile-phase label not given, read-out: Log P (preparation examples)

CCn1ncc(C(=O)c2ccc(Cl)c(OCCn3nc(C)n(C)c3=O)c2C)c1OCc1ccc(Br)cc1 [Example 12]
logP (Physical data, Table 1): logP = 2.07^a)

CCn1ncc(C(=O)c2ccc(SC)c(OCCn3nc(C)n(C)c3=O)c2Cl)c1OCc1ccc(Br)cc1 [Example 14]
logP (Physical data, Table 1): logP = 2.05^a)

CCn1ncc(C(=O)c2ccc(Cl)c(OCCn3nc(OC)n(C)c3=O)c2Cl)c1O [Example 15]
logP (Physical data, Table 1): logP = 1.69^a)

CCn1ncc(C(=O)c2ccc(Cl)c(OCCn3nc(SC)n(C)c3=O)c2Cl)c1O [Example 16]
logP (Physical data, Table 1): logP = 1.92^a)

CCn1ncc(C(=O)c2ccc(Cl)c(OCCn3nc(OC)n(CC)c3=O)c2Cl)c1O [Example 17]
logP (Physical data, Table 1): logP = 1.93^a)

CCn1ncc(C(=O)c2ccc(Cl)c(OCCn3nc(COC)n(C)c3=O)c2Cl)c1O [Example 18]
logP (Physical data, Table 1): logP = 1.62^a)

COCc1nn(CCOc2c(Cl)ccc(C(=O)C3=C(O)CCCC3=O)c2Cl)c(=O)n1C [Example 19]
logP (Physical data, Table 1): logP = 2.06^a)

CCn1ncc(C(=O)c2ccc(SC)c(OC[C@@H]3CCC(=O)N3)c2Cl)c1O [Example 20]
logP (Physical data, Table 1): (S enantiomer) logP = 1.60^a)

CSc1nn(CCOc2c(Cl)ccc(C(=O)C3=C(O)CCCC3=O)c2Cl)c(=O)n1C [Example 21]
logP (Physical data, Table 1): logP = 2.39^a)

CCn1c(OC)nn(CCOc2c(Cl)ccc(C(=O)C3=C(O)CCCC3=O)c2Cl)c1=O [Example 22]
logP (Physical data, Table 1): logP = 2.16^a)

CSc1ccc(C(=O)C2=C(O)CCCC2=O)c(Cl)c1OC[C@@H]1CCC(=O)N1 [Example 24]
logP (Physical data, Table 1): (S enantiomer) logP = 1.98^a)

CCn1ncc(C(=O)c2ccc(Cl)c(OCCn3nc(OC)n(CC)c3=O)c2C)c1O [Example 25]
logP (Physical data, Table 1): logP = 1.88^a)

CCn1c(OC)nn(CCOc2c(Cl)ccc(C(=O)C3=C(O)CCCC3=O)c2C)c1=O [Example 26]
logP (Physical data, Table 1): logP = 2.15^a)

CCn1ncc(C(=O)c2ccc(Cl)c(OCCn3nc(SC)n(C)c3=O)c2C)c1O [Example 27]
logP (Physical data, Table 1): logP = 2.11^a)

CSc1nn(CCOc2c(Cl)ccc(C(=O)C3=C(O)CCCC3=O)c2C)c(=O)n1C [Example 28]
logP (Physical data, Table 1): logP = 2.38^a)

CCn1ncc(C(=O)c2ccc(Cl)c(OCCn3nc(OC)n(CC)c3=O)c2C)c1O [Example 29]
logP (Physical data, Table 1): logP = 2.12^a)

CCn1ncc(C(=O)c2ccc(Cl)c(OCCn3nc(COC)n(C)c3=O)c2C)c1O [Example 30]
logP (Physical data, Table 1): logP = 1.78^a)

CCn1c(OC)nn(CCOc2c(Cl)ccc(C(=O)C3=C(O)CCCC3=O)c2C)c1=O [Example 31]
logP (Physical data, Table 1): logP = 2.38^a)

COCc1nn(CCOc2c(Cl)ccc(C(=O)C3=C(O)CCCC3=O)c2C)c(=O)n1C [Example 32]
logP (Physical data, Table 1): logP = 2.04^a)

CCn1ncc(C(=O)c2ccc(SC)c(OCCn3nc(SC)n(C)c3=O)c2Cl)c1O [Example 33]
logP (Physical data, Table 1): logP = 1.97^a)

CSc1ccc(C(=O)C2=C(O)CCCC2=O)c(Cl)c1OCCn1nc(SC)n(C)c1=O [Example 34]
logP (Physical data, Table 1): logP = 2.36^a)

CCn1ncc(C(=O)c2ccc(Cl)c(OC[C@@H]3CCC(=O)N3)c2C)c1O [Example 35]
logP (Physical data, Table 1): (S enantiomer) [α]D^20 = +2.3 logP = 1.67^a)

Cc1c(C(=O)C2=C(O)CCCC2=O)ccc(Cl)c1OC[C@@H]1CCC(=O)N1 [Example 36]
logP (Physical data, Table 1): (S enantiomer) logP = 1.94^a)

CCn1ncc(C(=O)c2ccc(Cl)c(OC[C@@H]3CCC(=O)N3C)c2C)c1O [Example 37]
logP (Physical data, Table 1): (S enantiomer) logP = 1.85^a)

Cc1c(C(=O)C2=C(O)CCCC2=O)ccc(Cl)c1OC[C@@H]1CCC(=O)N1C [Example 38]
logP (Physical data, Table 1): (S enantiomer) logP = 2.10^a)

CN1C(=O)CC[C@H]1COc1c(Cl)ccc(C(=O)C2=C(O)CCCC2=O)c1Cl [Example 39]
logP (Physical data, Table 1): (S enantiomer) logP = 2.12^a)

CCn1ncc(C(=O)c2ccc(Cl)c(OC[C@@H]3CCC(=O)N3C)c2Cl)c1O [Example 40]
logP (Physical data, Table 1): (S enantiomer) logP = 1.67^a)

COCc1nn(CCOc2c(SC)ccc(C(=O)C3=C(O)CCCC3=O)c2Cl)c(=O)n1C [Example 44]
logP (Physical data, Table 1): logP = 2.05^a)

CCn1ncc(C(=O)c2ccc(SC)c(OC[C@@H]3CCC(=O)N3C)c2Cl)c1O [Example 45]
logP (Physical data, Table 1): (S enantiomer) logP = 1.68^a)

CSc1ccc(C(=O)C2=C(O)CCCC2=O)c(Cl)c1OC[C@@H]1CCC(=O)N1C [Example 46]
logP (Physical data, Table 1): (S enantiomer) logP = 2.13^a)

O=C1CC[C@@H](COc2c(Cl)ccc(C(=O)C3=C(O)CCCC3=O)c2Cl)N1 [Example 47]
logP (Physical data, Table 1): (S enantiomer) logP = 1.95^a)

CCn1ncc(C(=O)c2ccc(Cl)c(OC[C@@H]3CCC(=O)N3)c2Cl)c1O [Example 48]
logP (Physical data, Table 1): (S enantiomer) logP = 1.51^a)

CCn1ncc(C(=O)c2ccc(Br)c(OC[C@@H]3CCC(=O)N3)c2Br)c1O [Example 60]
logP (Physical data, Table 1): (S enantiomer) logP = 1.56^a)

O=C1CC[C@@H](COc2c(Br)ccc(C(=O)C3=C(O)CCCC3=O)c2Br)N1 [Example 61]
logP (Physical data, Table 1): (S enantiomer) logP = 2.02^a)

COC(=O)c1ccc(Cl)c(OCCn2nc(C)n(C)c2=O)c1C [II-1, methyl 4-chloro-3-[2-(3′,4′-dimethyl-1′,2′,4′-1H-triazolin-5′-on-1′-yl)-ethoxy]-2-methyl-benzoate]
chromatographic logP [1]: 1.94

COC(=O)c1ccc(SC)c(OCCn2nc(C)n(C)c2=O)c1C [II-2, methyl 3-[2-(3′,4′-dimethyl-1′,2′,4′-1H-triazolin-5′-on-1′-yl)-ethoxy]-2-methyl-4-methylthio-benzoate]
chromatographic logP [1]: 1.89

CCOC(=O)c1ccc(S(C)(=O)=O)c(OCCn2nc(C)n(C)c2=O)c1C [II-3, ethyl 3-[2-(3′,4′-dimethyl-1′,2′,4′-1H-triazolin-5′-on-1′-yl)-ethoxy]-2-methyl-4-methylsulphonyl-benzoate]
chromatographic logP [1]: 1.76

Cc1c(C(=O)O)ccc(Cl)c1OCCn1nc(C)n(C)c1=O [II-4, 4-chloro-3-[2-(3′,4′-dimethyl-1′,2′,4′-1H-triazolin-5′-on-1′-yl)-ethoxy]-2-methyl-benzoic acid]
chromatographic logP [1]: 1.37

Cc1nn(CCOc2c(Cl)ccc(C(=O)Cl)c2Cl)c(=O)n1C [II-5, 2,4-dichloro-3-[2-(3′,4′-dimethyl-1′,2′,4′-1H-triazolin-5′-on-1′-yl)-ethoxy]-2-benzoyl chloride]
chromatographic logP [1]: 1.24

CCOC(=O)c1ccc(Cl)c(OCn2nc(OCC)n(C)c2=O)c1Cl [II-6, ethyl 3-(3′-ethoxy-4′-methyl-1′,2′,4′-1H-triazolin-5′-on-1′-yl)-methoxy-2,4-dichloro-benzoate]
chromatographic logP [1]: 2.77

CCOc1nn(COc2c(Cl)ccc(C(=O)O)c2Cl)c(=O)n1C [II-8, 3-(3′-ethoxy-4′-methyl-1′,2′,4′-1H-triazolin-5′-on-1′-yl)-methoxy-2,4-dichloro-benzoic acid]
chromatographic logP [1]: 1.74

CCOC(=O)c1ccc(Cl)c(OCCn2nc(SC)n(C)c2=O)c1Cl [II-35, ethyl 2,4-dichloro-3-[2-(3-methylthio-4-methyl-5-oxo-1,2,4-triazolin-1-yl)-ethoxy]-benzoate]
chromatographic logP (reversed-phase HPLC column (C 18), labelled a): acidic range; read-out: logP)): 2.66
chromatographic logP (reversed-phase HPLC column (C 18), labelled a): acidic range, starting materials of formula (II)/(IIA), read-out: logP (Physical data, Table 2)): 2.66
